{"source": "ChEMBL document CHEMBL5725872", "about": "“Benzofuran compounds for the treatment of hepatitis C” (2018)", "assay": "HCV Replicon Luciferase Assay: To evaluate compound efficacy, titrated compounds were transferred to sterile 384-well tissue culture treated plates, and the plates were seeded with HCV replicon cells (50 μL at a density of 2.4×10^3 cells/well) in DMEM containing 4% FBS (final DMSO concentration at 0.5%). After 3 days incubation at 37° C., cells were analyzed for Renilla Luciferase activity using the EnduRen substrate (Promega cat #E6485) according to the manufacturer's directions. Briefly, the EnduRen substrate was diluted in DMEM and then added to the plates to a final concentration of 7.5 μM. The plates were incubated for at least 1 h at 37° C. then read on a Viewlux Imager (PerkinElmer) using a luminescence program. The 50% effective concentration (EC50) was calculated using the four-parameter logistic Formula noted above. To assess cytotoxicity of compounds, Cell Titer-Blue (Promega) was added to the EnduRen-containing plates and incubated for at least 4 hrs at 37° C. The fluorescence signal from each well was read using a Viewlux Imager. All CC50 values were calculated using the four-parameter logistic Formula."}
{"smiles": "CNC(=O)c1c(-c2ccc(F)cc2)oc2cc(N(CCCF)S(C)(=O)=O)c(-c3cccc(C(=O)N[C@H](C)C(F)(F)F)c3)cc12", "values": [{"measurement": "EC50", "setting": "72 h", "result": "< 100", "unit": "nM"}]}
{"smiles": "CNC(=O)c1c(-c2ccc(F)cc2)oc2cc(N(CCF)S(C)(=O)=O)c(-c3cccc(C(=O)N4CCC[C@H]4CO)c3)cc12", "values": [{"measurement": "EC50", "setting": "72 h", "result": "100 to 1000", "unit": "nM"}]}
{"smiles": "CNC(=O)c1c(-c2ccc(F)cc2)oc2cc(N(CCF)S(C)(=O)=O)c(-c3cccc(C(=O)NC(C)(C)C)c3)cc12", "values": [{"measurement": "EC50", "result": "< 100", "unit": "nM"}, {"measurement": "EC50", "setting": "72 h", "result": "< 100", "unit": "nM"}]}
{"smiles": "CC[C@H](NC(=O)c1cccc(-c2cc3c(C(=O)NC)c(-c4ccc(F)cc4)oc3cc2N(CCF)S(C)(=O)=O)c1)C1CC1", "values": [{"measurement": "EC50", "setting": "72 h", "result": "< 100", "unit": "nM"}]}
{"smiles": "CNC(=O)c1c(-c2ccc(F)cc2)oc2cc(N(CCF)S(C)(=O)=O)c(-c3cccc(C(=O)N4CC[C@H](O)C4)c3)cc12", "values": [{"measurement": "EC50", "setting": "72 h", "result": "> 1000", "unit": "nM"}]}
{"smiles": "CNC(=O)c1c(-c2ccc(F)cc2)oc2cc(N(C(F)F)S(C)(=O)=O)c(-c3cccc(C(=O)O)c3)cc12", "values": [{"measurement": "EC50", "setting": "72 h", "result": "> 10000", "unit": "nM"}]}
{"smiles": "CNC(=O)c1c(-c2ccc(F)cc2)oc2cc(N(CCCF)S(C)(=O)=O)c(-c3cccc(C(=O)N[C@@H](C)C(F)(F)F)c3)cc12", "values": [{"measurement": "EC50", "setting": "72 h", "result": "< 100", "unit": "nM"}]}
{"smiles": "CNC(=O)c1c(-c2ccc(F)cc2)oc2cc(N(CCCF)S(C)(=O)=O)c(-c3cccc(C(=O)NC(C)(C)C)c3)cc12", "values": [{"measurement": "EC50", "result": "< 100", "unit": "nM"}, {"measurement": "EC50", "setting": "72 h", "result": "< 100", "unit": "nM"}]}
